SMILES strings stand for the structures. ≈ marks a conversion by molar mass, not a printed value.

For the test, the system named is SA 9218. Briefly: MIC by standard agar dilution method. The conditions noted are these: Mueller Hinton agar, 10^4 to 10^5 cells per spot, incubated overnight at 35° C., lowest concentration that inhibits visible growth. The format is cell-based. An excerpt:
The antibacterial agents of this invention have useful activity against a variety of organisms. The in vitro activity of compounds of this invention can be assessed by standard testing procedures such as the determination of minimum inhibitory concentration (MIC) by agar dilution as described in “Approved Standard. Methods for Dilution Antimicrobial Susceptibility Tests for Bacteria That Grow Aerobically”, 3rd. ed., published 1993 by the National Committee for Clinical Laboratory Standards, Villanova, Pa., USA. The in vitro MICs of test compounds were determined by a standard agar dilution method. A stock drug solution of each analog was prepared in the preferred solvent, usually DMSO:H2O (1:3). Serial 2-fold dilutions of each sample are made using 1.0 ml aliquots of sterile distilled water. To each 1.0 ml aliquot of drug was added 9 ml of molten Mueller Hinton agar medium. The drug-supplemented agar was mixed, poured into 15×100 mm petri dishes, and allowed to solidify and dry prior to inoculation. Vials of each of the test organisms are maintained frozen in the vapor phase of a liquid nitrogen freezer. Test cultures are grown overnight at 35° C. on the medium appropriate for the organism. Colonies are harvested with a sterile swab, and cell suspensions are prepared in Trypticase Soy broth (TSB) to equal the turbidity of a 0.5 McFarland standard. A 1:20 dilution of each suspension was made in TSB. The plates containing the drug supplemented agar are inoculated with a 0.001 ml drop of the cell suspension using a Steers replicator, yielding approximately 10^4 to 10^5 cells per spot. The plates are incubated overnight at 35° C. Following incubation the Minimum Inhibitory Concentration (MIC μg/ml), the lowest concentration of drug that inhibits visible growth of the organism, was read and recorded.
A general note: In agar dilution, organisms are placed on agar that contains the substance at set levels.
On to `O=C(COc1ccccc1)c1cccc(C(=O)Nc2ccc(Cl)cc2C(=O)O)c1` [PHA-656882], for which the MIC (commonly the smallest concentration in the dilution series that meets the test's criterion for growth inhibition) amounted to 16 µg/mL (≈ 39 µM).
On the same count and under the same terms, the value for `O=C(Nc1ccc(Br)cc1C(=O)O)c1cccc(OCC2CCOC2)c1` (stereo not drawn) was 16 µg/mL (≈ 38.1 µM).
`CCOc1ccc(C(=O)Nc2ccc(C#N)cc2C(=O)O)cc1` returned an MIC of 32 µg/mL (≈ 103 µM).
On to `O=C(Nc1ccc(Cl)cc1C(=O)O)c1cccc(C(=O)C2CCOC2)c1` (stereo not drawn), for which inhibition of growth (MIC) required 128 µg/mL (≈ 342 µM).
For `COc1ccc(Cl)cc1NC(=O)Nc1cccc(C(=O)Nc2ccc(Br)cc2C(=O)O)c1` [PHA-713398], the MIC was found to be 4 µg/mL (≈ 7.71 µM).
In turn, `N#Cc1ccc(NC(=O)c2cccc(SC3CCCC3)c2)c(C(=O)O)c1` [PHA-546926] displayed an MIC of 0.5 µg/mL (≈ 1.36 µM).
Consider `O=C(Nc1ccc(Cl)cc1C(=O)O)c1cccc(C(=NO)c2ccco2)c1` [drawing 1086], for which the “SA 9218 MIC” value was 2 µg/mL.
Consider `N#Cc1ccc(NC(=O)c2cccc(S(=O)(=O)Nc3ccc4c(c3)CCC4)c2)c(C(=O)O)c1` [PHA-656860], for which the MIC is 8 µg/mL (≈ 17.3 µM).
`Cl.N#Cc1ccc(NC(=O)c2cccc(SCc3ccncc3)c2)c(C(=O)O)c1` [PHA-569044A]: inhibition of growth (MIC) required 0.5 µg/mL.
The molecule `O=C(Nc1ccc(Br)cc1C(=O)O)c1cccc(NC(=O)c2ccco2)c1` [PHA-708978] showed an MIC of 32 µg/mL (≈ 74.6 µM).
With `O=C(Nc1ccc(Br)cc1C(=O)O)c1ccc(S(=O)(=O)C2CCc3ccc(Cl)cc32)cc1` (stereo not drawn), the MIC was determined as 0.5 µg/mL (≈ 0.935 µM).
`CCN(Cc1ccncc1)S(=O)(=O)c1cccc(C(=O)Nc2ccc(Br)cc2C(=O)O)c1` came in with an MIC of 32 µg/mL (≈ 61.7 µM).
Consider `N#Cc1ccc(NC(=O)c2ccc(-c3ccccc3)cc2)c(C(=O)O)c1`, for which the MIC is 64 µg/mL (≈ 187 µM).
Same read-out and setting: the figure for `C[C@@H](c1ccccc1)N(C)S(=O)(=O)c1cccc(C(=O)Nc2ccc(C#N)cc2C(=O)O)c1` [PHA-562863] is 2 µg/mL (≈ 4.31 µM); for `CCN(Cc1ccncc1)S(=O)(=O)c1ccc(C)c(C(=O)Nc2ccc(Br)cc2C(=O)O)c1` it is above 128 µg/mL.
Turning to `O=C(Nc1ccc(Cl)cc1C(=O)O)c1cccc(C(=O)c2cccs2)c1` [PHA-656887], it took 8 µg/mL (≈ 20.7 µM) to inhibit growth (MIC).
`COC(=O)C(Oc1ccc(C(=O)Nc2ccc(Br)cc2C(=O)O)cc1)c1ccccc1` (stereo not drawn) returned an MIC of 64 µg/mL (≈ 132 µM).
Same read-out and setting: the value for `COc1ccc(C(=O)Nc2ccc(Br)cc2C(=O)O)cc1S(=O)(=O)Nc1ccc2c(c1)OCCO2` was 8 µg/mL (≈ 14.2 µM); that for `CCC(CC)C(=O)c1ccc(C(=O)Nc2ccc(Cl)cc2C(=O)O)cc1` was 4 µg/mL (≈ 10.7 µM).
Turning to `CCC1CCCCN1S(=O)(=O)c1cccc(C(=O)Nc2ccc(C#N)cc2C(=O)O)c1` (stereo not drawn) [PHA-571263], the MIC is 16 µg/mL (≈ 36.2 µM).
Still for that read-out and setting: the value for `N#Cc1ccc(NC(=O)c2cccc(S(=O)(=O)N3CCN(c4cccc(C(F)(F)F)c4)CC3)c2)c(C(=O)O)c1` [PHA-571267] was 32 µg/mL (≈ 57.3 µM).
`CCCC(Oc1ccc(C(=O)Nc2ccc(Br)cc2C(=O)O)cc1)C(=O)OCC` (stereo not drawn) [drawing 1091] showed an MIC of 64 µg/mL (≈ 138 µM).
`COCCOc1cccc(C(=O)Nc2ccc(Br)cc2C(=O)O)c1` returned an MIC of 16 µg/mL (≈ 40.6 µM).
Turning to `O=C(Nc1ccc(/C=N/O)cc1C(=O)O)c1cccc(S(=O)(=O)N2CCc3cc(Cl)ccc32)c1` [PHA-686834], it took 4 µg/mL (≈ 8 µM) to inhibit growth (MIC).
As to `CN(C)c1cccc(C(=O)Nc2ccc(Br)cc2C(=O)O)c1`, the MIC was 32 µg/mL (≈ 88.1 µM).
Take `O=C(Nc1ccc(Cl)cc1C(=O)O)c1cccc(C(=O)c2ccccc2)c1` [PHA-518226]: the “SA 9218 MIC” value worked out at 2 µg/mL.
On the same count and under the same terms, the value for `N#Cc1ccc(NC(=O)c2cccc(S(=O)(=O)N3CCOCC3)c2)c(C(=O)O)c1` [PHA-662951] was 32 µg/mL.
In the case of `O=C(Nc1ccc(Br)cc1C(=O)O)c1ccc(S(=O)(=O)N2CCCC2)cc1` [PHA-568376], it took 16 µg/mL (≈ 35.3 µM) to inhibit growth (MIC).
Regarding `N#Cc1ccc(NC(=O)c2ccc(S(=O)(=O)N3CCc4ccccc4C3)cc2)c(C(=O)O)c1` [PHA-571265], the MIC turned out to be 16 µg/mL (≈ 34.7 µM).
Take `C=CCON=C(c1ccc(C(=O)Nc2ccc(Cl)cc2C(=O)O)cc1)c1ccco1` [drawing 1123]: the “SA 9218 MIC” value was 64 µg/mL.
Molecule `N#Cc1ccc(NC(=O)c2cccc(C(=O)c3ccccc3)c2)c(C(=O)O)c1` [PHA-524524] registered an MIC of 1 µg/mL (≈ 2.7 µM).
Same read-out and setting: the value for `CC(=O)c1cccc(NC(=S)Nc2cccc(C(=O)Nc3ccc(Br)cc3C(=O)O)c2)c1` [PHA-713408] was 64 µg/mL (≈ 125 µM); that for `O=C(Nc1ccc(Oc2ccccc2)cc1)Nc1ccc(C(=O)Nc2ccc(Br)cc2C(=O)O)cc1` [PHA-713400] was 16 µg/mL (≈ 29.3 µM).
`O=C(Nc1ccc(Br)cc1C(=O)O)c1ccc(S(=O)(=O)n2cccc2)cc1` [PNU-291130]: the MIC is 4 µg/mL (≈ 8.9 µM).
Regarding `COc1ccc(C(=O)c2cccc(C(=O)Nc3ccc(Cl)cc3C(=O)O)c2)cc1`, 8 µg/mL (≈ 19.5 µM) was the least that counted as inhibitory (MIC).
Still for that read-out and setting: the figure for `O=C(Nc1ccc(Cl)cc1C(=O)O)c1ccc(C(=O)c2ccco2)cc1` is 4 µg/mL (≈ 10.8 µM); for `O=C(Nc1ccc(Cl)cc1C(=O)O)c1cccc(C(=O)c2cc(F)cc(F)c2)c1` [PHA-656893] it is 8 µg/mL (≈ 19.2 µM); for `N#Cc1ccc(NC(=O)c2cccc(S(=O)(=O)N3CCCCC3)c2)c(C(=O)O)c1` [PHA-564750] it is 0.25 µg/mL (≈ 0.605 µM).
Molecule `CCN(CC)C(=O)C1CCCN(S(=O)(=O)c2ccc(C(=O)Nc3ccc(C#N)cc3C(=O)O)cc2)C1` (stereo not drawn) [PHA-571202] yielded an MIC of 128 µg/mL (≈ 250 µM).
`N#Cc1ccc(NC(=O)c2cccc(O)c2)c(C(=O)O)c1`: inhibition of growth (MIC) required 32 µg/mL (≈ 113 µM).
Still for that read-out and setting: the value for `N#Cc1ccc(NC(=O)c2ccc(S(=O)(=O)N(CCO)Cc3ccccc3)cc2)c(C(=O)O)c1` [PHA-656862] was 32 µg/mL (≈ 66.7 µM).
Turning to `O=C(O)c1cc(Cl)ccc1/C=C/c1cccc(S(=O)(=O)N2CCc3cc(Cl)ccc32)c1` [PHA-707801], the MIC worked out at 4 µg/mL (≈ 8.43 µM).
`COc1ccc(C(=O)Nc2ccc(Br)cc2C(=O)O)cc1OC` had an MIC of 128 µg/mL (≈ 337 µM).
As to `COc1cc(COc2ccc(C(=O)Nc3ccc(Br)cc3C(=O)O)cc2)cc(OC)c1`, the MIC was 8 µg/mL (≈ 16.5 µM).
The molecule `CC1(C)CN(S(=O)(=O)c2cccc(C(=O)Nc3ccc(C#N)cc3C(=O)O)c2)c2ccccc21` [PHA-555027] came in with an MIC of 1 µg/mL (≈ 2.1 µM).
Regarding `COc1ccc(C(=O)Nc2ccc(Br)cc2C(=O)O)cc1S(=O)(=O)N1CCN(c2cccc(C(F)(F)F)c2)CC1`, inhibition of growth (MIC) required 32 µg/mL (≈ 49.8 µM).
The same measure, in the same setting: the value for `O=C(Nc1ccc(Cl)cc1C(=O)O)c1ccc(SCc2ccccc2)c(Br)c1` [PNU-290882] was 1 µg/mL (≈ 2.1 µM); that for `COc1cc2c(cc1OC)CN(S(=O)(=O)c1ccc(C(=O)Nc3ccc(C#N)cc3C(=O)O)cc1)CC2` [PHA-571198] was above 128 µg/mL.
`O=C(Nc1ccc(Cl)cc1C(=O)O)c1ccc(I)c(I)c1` displayed an MIC of 2 µg/mL (≈ 3.79 µM).
The molecule `N#Cc1ccc(NC(=O)c2cccc(Cl)c2)c(C(=O)O)c1` [PHA-571155] displayed an MIC of 32 µg/mL (≈ 106 µM).
`O=C(Nc1ccc(-c2ccc(F)cc2F)cc1C(=O)O)c1cccc(S(=O)(=O)N2CCc3cc(Cl)ccc32)c1` [PHA-563281] displayed an MIC of 1 µg/mL (≈ 1.76 µM).
In turn, `O=C(Nc1ccc(Cl)cc1C(=O)O)c1ccc(C(=O)c2ccc3c(c2)OCO3)cc1` gave an MIC of 2 µg/mL (≈ 4.72 µM).
The same measure, in the same setting: the value for `CCCN(CCC)Sc1ccc(C(=O)Nc2ccc(Cl)cc2C(=O)O)cc1[N+](=O)[O-]` [PNU-277231] was 1 µg/mL (≈ 2.21 µM); that for `CCN(CC)c1ccc(NS(=O)(=O)c2cc(C(=O)Nc3ccc(Br)cc3C(=O)O)ccc2Br)cc1` was 64 µg/mL (≈ 102 µM); that for `Cc1ccc(S(=O)(=O)N2CCN(c3cccc(C(F)(F)F)c3)CC2)cc1C(=O)Nc1ccc(Br)cc1C(=O)O` was 16 µg/mL (≈ 25.5 µM).
`N#Cc1ccc(NC(=O)c2cccc(S(=O)(=O)N3CCC(O)CC3)c2)c(C(=O)O)c1` [PHA-571219] yielded an MIC of 32 µg/mL (≈ 74.5 µM).
Still for that read-out and setting: the figure for `CN(CCC(O)c1ccccc1)S(=O)(=O)c1ccc(C(=O)Nc2ccc(C#N)cc2C(=O)O)cc1` (stereo not drawn) [PHA-656861] is 32 µg/mL (≈ 64.8 µM).
The same measure, in the same setting: the figure for `Cc1ccc(S(=O)(=O)Cc2ccc(C(=O)Nc3ccc(Br)cc3C(=O)O)cc2)cc1` [PHA-713411] is 32 µg/mL (≈ 65.5 µM); for `COC(=O)c1ccc(C(=O)Nc2ccc(Br)cc2C(=O)O)cc1` it is 32 µg/mL (≈ 84.6 µM).
For `CC(C(O)c1ccccc1)N(C)S(=O)(=O)c1cccc(C(=O)Nc2ccc(C#N)cc2C(=O)O)c1` (stereo not drawn) [PHA-571260], the “SA 9218 MIC” value came out at 32 µg/mL.
Turning to `N#Cc1ccc(NC(=O)c2ccc(S(=O)(=O)N3CCC(O)CC3)cc2)c(C(=O)O)c1` [PHA-571231], the MIC was above 128 µg/mL.
`O=Cc1ccc(NC(=O)c2cc(Br)cc(S(=O)(=O)N3CCc4cc(Cl)ccc43)c2)c(C(=O)O)c1` [PHA-681768]: the MIC was 1 µg/mL (≈ 1.77 µM).
Take `O=C(Nc1ccc(Br)cc1C(=O)O)c1cccc(NC(=S)Nc2ccccc2C(F)(F)F)c1` [PHA-713405]: the lowest concentration to inhibit growth (MIC) was 128 µg/mL (≈ 238 µM).
With `O=C(Nc1ccc(Br)cc1C(=O)O)c1cccc(S(=O)(=O)Nc2ccc3c(c2)OCCO3)c1`, the MIC was 4 µg/mL (≈ 7.5 µM).
`O=C(Nc1ccc(Cl)cc1C(=O)O)c1cccc(C(=O)c2ccc3c(c2)OCO3)c1` had an MIC of 4 µg/mL (≈ 9.44 µM).
On the same count and under the same terms, the value for `O=C(Nc1ccc(Cl)cc1C(=O)O)c1cccc(C(=O)c2ccccc2)c1` [drawing 1011] was 4 µg/mL (≈ 10.5 µM).
`Cc1ccc(S(=O)(=O)Nc2ccc(C(=O)Nc3ccc(Br)cc3C(=O)O)cc2)cc1` yielded an MIC of 16 µg/mL (≈ 32.7 µM).
`O=C(Nc1ccc(Br)cc1C(=O)O)c1cccc(OCc2ccccc2)c1` [PHA-501685]: the “SA 9218 MIC” value was 2 µg/mL.
On to `COC(=O)CCCC(=O)c1ccc(NC(=O)c2cccc(S(=O)(=O)N3CCSC3)c2)c(C(=O)O)c1`, for which the MIC was above 128 µg/mL.

Values taken from patent publication US20050113450A1, “Antibacterial agents” (priority 2002, published 2005).
